In article PMC10254233, “Synthesis and In Vitro Biological Evaluation of p-Carborane-Based Di-tert-butylphenol Analogs” (Molecules, 2023):
Values belong to the molecule of their own block, whether it stands above or below them.

Legend:
[1] = biological target: T1, 5-LO (Homo sapiens, UniProt P09917); experiment: 5-LO product formation in intact PMNL; settings: PMNL, read-out: inhibition of 5-LO product formation
T1 sequence (P09917 1-674): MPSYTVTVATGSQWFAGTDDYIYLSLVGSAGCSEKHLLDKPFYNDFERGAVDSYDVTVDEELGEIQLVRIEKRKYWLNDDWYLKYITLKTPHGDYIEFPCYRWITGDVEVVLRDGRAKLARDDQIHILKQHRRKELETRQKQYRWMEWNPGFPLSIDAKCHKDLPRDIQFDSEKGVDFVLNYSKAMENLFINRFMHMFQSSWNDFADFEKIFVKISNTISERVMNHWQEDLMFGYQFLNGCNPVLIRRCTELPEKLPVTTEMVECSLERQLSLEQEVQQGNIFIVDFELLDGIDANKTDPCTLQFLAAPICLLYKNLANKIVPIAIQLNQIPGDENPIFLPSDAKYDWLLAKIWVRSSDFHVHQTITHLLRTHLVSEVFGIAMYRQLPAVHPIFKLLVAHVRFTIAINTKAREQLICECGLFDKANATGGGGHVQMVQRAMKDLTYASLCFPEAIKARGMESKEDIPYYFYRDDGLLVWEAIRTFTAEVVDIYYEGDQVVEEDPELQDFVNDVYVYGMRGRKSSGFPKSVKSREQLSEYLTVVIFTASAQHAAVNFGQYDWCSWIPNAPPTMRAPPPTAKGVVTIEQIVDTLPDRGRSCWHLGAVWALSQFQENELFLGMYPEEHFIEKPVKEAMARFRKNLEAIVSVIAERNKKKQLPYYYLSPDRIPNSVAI
Protocol: After 10 min at 37 °C, the reaction was stopped by addition of ice-cold methanol (1 mL). HCl (30 μL, 1 M), prostaglandin B1 (200 ng) and PBS (500 μL) were added and the formed metabolites were extracted and analyzed by HPLC as described previously [96].

[2] = tested on: A375 melanoma; experiment: Cell viability, crystal violet (CV) assay, A375; format: cell-based; settings: Homo sapiens, A-375; 72 h, mean ± SD
Protocol: (§1) Five human cell lines (A375 melanoma, A549 lung adenocarcinoma, HCT116 and HT29 colorectal carcinoma, MDA-MB-231 triple-negative breast adenocarcinoma) were used to study the antitumor effects of the di-tert-butylphenols and their respective carborane analogs. All selected cell lines were derived from inflammation-associated tumors.
(§2) After the incubation period, the supernatant was discarded from the wells, and the cells were washed two times with 200 µL of PBS. Next, MTT solution at a final concentration of 0.5 mg/mL was added and incubated at 37 °C until purple formazan crystals were formed (30 min to one hour). After incubation, the dye was discarded. In order to dissolve the formed formazan crystals DMSO was added, and the absorbance was measured at λmax = 540 nm, with the reference/background wavelength of 670 nm. All results are expressed as a percentage of the control value which was arbitrary set to 100%. After 72 h treatment, cells were washed with 200 µL of PBS and fixed with 4% paraformaldehyde (PFA) for 15 min at room temperature (RT). Next, cells were stained with 1% CV solution. After 20 min, cells were washed in tap water and dried on air. Dye was dissolved in 33% acetic acid and the absorbance was measured at λmax = 540 nm, with the reference/background wavelength of 670 nm. Results were expressed as a percentage of the control value which was arbitrary set to 100%.
(§3) 1. General methods, materials, and procedures
(§4) 1.1.1. Reagents and cells
(§5) Reagents and cells were obtained from following manufacturers: Capricorn Scientific GmbH (Hessen, Germany) – Culture medium RPMI-1640, Dulbecco's Modified Eagle Medium (DMEM), and fetal bovine serum (FBS). Serva (Heidelberg, Germany) – Paraformaldehyde (PFA). Sigma (St. Louis, MO, USA) – Ethylenediaminetetraacetic acid (EDTA), Dimethyl sulfoxide (DMSO), chloroquine, CV, Triton X-100, RNase, PI, PBS, 3-MA, CFSE, and fluorescent mounting medium. AppliChem (MO, USA) –MTT. Thermo Fisher Scientific (Waltham, MA, USA) – DHR. R&D Systems (Minneapolis, MN, USA) – ApoStat. BD (Pharmingen, San Diego, SAD) – Annexin V-FITC (AnnV). Biological Industries (Cromwell, CT, USA) – Penicillin Streptomycin solution. […]
(§6) Afterwards, cells were washed with phosphate-buffered saline (PBS) and stained with AnnV (15 μg/mL) and PI (15 μg/mL). After 15 min incubation at room temperature (RT) protected from light the cells were resuspended in AnnV-binding buffer and analysed using flow cytom-etry. HCT116 cells were incubated with pan-caspase inhibitor Apostat for 30 min at 37 °C to determine whether detected apoptosis was mediated by caspase activation. Afterwards, cells were washed with PBS and analyzed using flow cytometry. […] Afterwards cells were washed with PBS, resuspended and analyzed by flow cytometry (CyFlow® Space Partec using the PartecFloMax® software

[3] = biological target: T2, human recombinant COX-2 (Homo sapiens, UniProt P35354); experiment: COX Fluorescent Inhibitor Screening Assay, COX-2; format: biochemical; settings: in duplicate
T2 construct: purchased Cayman Chemical Company
T2 sequence (P35354 18-604): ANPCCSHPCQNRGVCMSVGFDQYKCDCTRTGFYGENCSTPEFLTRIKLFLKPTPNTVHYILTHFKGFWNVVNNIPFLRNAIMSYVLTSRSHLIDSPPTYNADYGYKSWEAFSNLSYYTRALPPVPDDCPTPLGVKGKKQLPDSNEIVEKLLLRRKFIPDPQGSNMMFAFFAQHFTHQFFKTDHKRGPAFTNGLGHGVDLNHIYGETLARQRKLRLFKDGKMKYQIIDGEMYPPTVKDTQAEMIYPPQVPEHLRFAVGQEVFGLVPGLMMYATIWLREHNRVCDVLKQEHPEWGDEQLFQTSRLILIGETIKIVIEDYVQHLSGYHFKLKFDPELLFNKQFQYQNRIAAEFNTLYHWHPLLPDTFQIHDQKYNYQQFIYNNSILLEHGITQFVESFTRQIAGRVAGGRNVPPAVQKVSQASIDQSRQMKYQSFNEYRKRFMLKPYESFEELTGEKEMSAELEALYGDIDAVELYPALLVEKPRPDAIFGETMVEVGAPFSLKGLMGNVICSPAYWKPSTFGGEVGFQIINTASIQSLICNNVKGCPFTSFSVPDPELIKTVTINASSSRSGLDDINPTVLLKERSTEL
Protocol: (§7) COX inhibition activity against ovine COX-1 and human COX-2 was determined using the fluorescence-based COX assay COX Fluorescent Inhibitor Screening Assay Kit (Cayman Chemical Company, Ann Arbor, MI, USA) according to the manufacturer’s instructions as previously reported by us. All compounds were screened at a concentration of 100 µM in duplicate.

[4] = tested on: MDA-MB-231 triple-negative breast adenocarcinoma; experiment: Cell viability, crystal violet (CV) assay, MDA-MB-231; format: cell-based; settings: Homo sapiens, 72 h, mean ± SD
Protocol: as §1, §2, §3, §4, §5, §6

[5] = tested on: A375 melanoma; experiment: Cell viability, MTT assay, A375; format: cell-based, human; settings: Homo sapiens, A-375; 72 h, mean ± SD
Protocol: as §1, §2, §3, §4
(§8) Reagents and cells were obtained from following manufacturers: Capricorn Scientific GmbH (Hessen, Germany) – Culture medium RPMI-1640, Dulbecco's Modified Eagle Medium (DMEM), and fetal bovine serum (FBS). Serva (Heidelberg, Germany) – Paraformaldehyde (PFA). Sigma (St. Louis, MO, USA) – Ethylenediaminetetraacetic acid (EDTA), Dimethyl sulfoxide (DMSO), chloroquine, CV, Triton X-100, RNase, PI, PBS, 3-MA, CFSE, and fluorescent mounting medium. AppliChem (MO, USA) –MTT. Thermo Fisher Scientific (Waltham, MA, USA) – DHR. R&D Systems (Minneapolis, MN, USA) – ApoStat. BD (Pharmingen, San Diego, SAD) – Annexin V-FITC (AnnV). Biological Industries (Cromwell, CT, USA) – Penicillin Streptomycin solution. American Type Culture Collection (ATCC, Manassas, Virginia, USA) – Human lung carcinoma (A549), human breast adenocarcinoma (MDA-MB-231), human colorectal ade-nocarcinoma (HT-29), human colorectal carcinoma (HCT116) and human melanoma (A375).
(§9) Cell lines (A375, HCT116, HT-29 and MDA-MB-231) were cultivated in HEPES-buffered RPMI-1640 medium while A549 cell line was cultivated in Dulbecco's Modified Eagle Medium (DMEM) which were previously supplemented with 10% heat-inactivated FBS, penicillin (100 units/mL), and streptomycin (100 μg/mL). All cells were kept at 37 °C in a humidified atmosphere with 5% CO2. For viability determi-nation cells were seeded at following densities in 96-well plates: 4 x 10^3 cells/well (A375, HT-29 and MDA-MB-231), 5 x 10^3 cells/well (HCT116), and 3 x 10^3 cells/well (A549). […]
(§10) Afterwards, cells were washed with phosphate-buffered saline (PBS) and stained with AnnV (15 μg/mL) and PI (15 μg/mL). […]
(§11) PBS and analyzed using flow cytometry. HCT116 cells were stained with 1 µg/mL of AO solution for 15 min at 37 °C to detect the presence of autophagic cell death. Afterwards cells were washed with PBS, resuspended and analyzed by flow cytometry (CyFlow® Space Partec using the PartecFloMax® software

[6] = tested on: MDA-MB-231 triple-negative breast adenocarcinoma; experiment: Cell viability, MTT assay, MDA-MB-231; format: cell-based, human; settings: Homo sapiens, MDA-MB-231; 72 h, mean ± SD
Protocol: as §1, §2, §3, §4, §8, §9
(§12) Afterwards, cells were washed with phosphate-buffered saline (PBS) and stained with AnnV (15 μg/mL) and PI (15 μg/mL). After 15 min incubation at room temperature (RT) protected from light the cells were resuspended in AnnV-binding buffer and analysed using flow cytom-etry. HCT116 cells were incubated with pan-caspase inhibitor Apostat for 30 min at 37 °C to determine whether detected apoptosis was mediated by caspase activation. Afterwards, cells were washed with PBS and analyzed using flow cytometry. HCT116 cells were stained with 1 µg/mL of AO solution for 15 min at 37 °C to detect the presence of autophagic cell death. Afterwards cells were washed with PBS, resuspended and analyzed by flow cytometry (CyFlow® Space Partec using the PartecFloMax® software

[7] = tested on: HCT116 colorectal carcinoma; experiment: Cell viability, MTT assay, HCT116; format: cell-based, human; settings: Homo sapiens, HCT-116; 72 h, mean ± SD
Protocol: as §1, §2, §3, §4, §8, §9, §10, §11

[8] = tested on: A549 lung adenocarcinoma; experiment: Cell viability, MTT assay, A549; format: cell-based, human; settings: Homo sapiens, A549; 72 h, mean ± SD
Protocol: as §1, §2, §3, §4, §8, §9, §12

[9] = tested on: HCT116 colorectal carcinoma; experiment: Cell viability, crystal violet (CV) assay, HCT116; format: cell-based; settings: Homo sapiens, HCT-116; 72 h, mean ± SD
Protocol: as §1, §2, §3, §4, §5, §6

[10] = biological target: T3, ovine COX-1 (Ovis aries, UniProt P05979); experiment: COX Fluorescent Inhibitor Screening Assay, COX-1; format: biochemical; settings: in duplicate
T3 construct: purchased Cayman Chemical Company
T3 sequence (P05979 25-600): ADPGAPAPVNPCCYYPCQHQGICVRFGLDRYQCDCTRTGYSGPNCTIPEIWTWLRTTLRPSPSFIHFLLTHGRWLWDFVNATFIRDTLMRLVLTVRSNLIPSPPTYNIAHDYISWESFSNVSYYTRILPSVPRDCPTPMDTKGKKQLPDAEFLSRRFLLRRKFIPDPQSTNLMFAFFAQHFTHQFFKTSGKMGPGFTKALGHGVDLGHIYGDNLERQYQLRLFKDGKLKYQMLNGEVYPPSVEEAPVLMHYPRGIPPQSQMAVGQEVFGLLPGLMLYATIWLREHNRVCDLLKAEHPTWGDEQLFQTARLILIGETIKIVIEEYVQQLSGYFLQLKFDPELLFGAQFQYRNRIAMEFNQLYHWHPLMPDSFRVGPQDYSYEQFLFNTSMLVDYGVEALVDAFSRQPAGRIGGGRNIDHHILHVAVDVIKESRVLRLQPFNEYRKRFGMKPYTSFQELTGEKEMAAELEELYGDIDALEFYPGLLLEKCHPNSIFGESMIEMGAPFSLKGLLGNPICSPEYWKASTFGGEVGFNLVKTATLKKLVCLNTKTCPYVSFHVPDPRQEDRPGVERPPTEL
Protocol: as §7

[11] = tested on: A549 lung adenocarcinoma; experiment: Cell viability, crystal violet (CV) assay, A549; format: cell-based; settings: Homo sapiens, 72 h, mean ± SD
Protocol: as §1, §2, §3, §4, §5, §6

[12] = tested on: HT-29 colorectal carcinoma; experiment: Cell viability, MTT assay, HT-29; format: cell-based, human; settings: Homo sapiens, HT-29; 72 h, mean ± SD
Protocol: as §1, §2, §3, §4, §8, §9, §12

[13] = tested on: HT-29 colorectal carcinoma; experiment: Cell viability, crystal violet (CV) assay, HT-29; format: cell-based; settings: Homo sapiens, 72 h, mean ± SD
Protocol: as §1, §2, §3, §4, §5, §6

[14] = physchem; settings: pH 7.4
[15] = served as references for the HPLC method; cited from earlier work

inhibition at 0.1 µM [1]: 92.5%
SMILES: CC(=O)N(O)C/C=C/c1cccc(Oc2ccccc2)c1 [BWA4C, N-[(E)-3-(3-Phenoxyphenyl)prop-2-enyl]acetohydroxamic acid]

IC50 [2]: 19.2 ± 0.7 µM | inhibition at 100 µM [3]: 86% | IC50 [4]: 43.5 ± 1.8 µM | IC50 [5]: 13.2 ± 2.7 µM | IC50 [6]: 34.8 ± 1.7 µM | IC50 [7]: 17.5 ± 1 µM | IC50 [8]: 16.2 ± 1.2 µM | IC50 [9]: 23.7 ± 1.9 µM | inhibition at 100 µM [10]: 38% | IC50 [11]: 17.9 ± 1.2 µM | IC50 [12]: 16.1 ± 1.1 µM | IC50 [13]: 23.8 ± 1.7 µM | chromatographic logD [14]: 3.75
SMILES: CCN1CC/C(=C\c2cc(C(C)(C)C)c(O)c(C(C)(C)C)c2)S1(=O)=O [Compound S-2474, 2,6-Bis(1,1-dimethylethyl)-4-[(E)-(2-ethyl-1,1-dioxido-5-isothiazolidinylidene)methyl]phenol]

SMILES: CC1=C(C(=O)Nc2ccccc2)S(=O)(=O)CCO1 [Oxycarboxin]
logD7.4 of HPLC references [15]: 1.13
